Earlier results in patent US9169190B2, “Methods for making retinoids and uses thereof” (The UAB Research Foundation, priority 2004, dated 2015).

Tests used:
[1] = system: MNU-induced mammary cancers; details: added to the diet of rats
mammary cancers = details: compared with 9cRA
[2] = system: juvenile myelomonocytic leukemia (JMML); details: children with JMML
[3] = system: acute promyelocytic leukemia (APL); details: patients with APL

For `CC1=C(/C=C/C(C)=C\C=C\C(C)=C\C(=O)O)C(C)(C)CCC1` [9cRA], the “reduction of the number of MNU-induced mammary cancers” value [1] is given as 92%.

In the case of `CC(=C/C=C/C(C)=C/C(=O)O)/C=C1\CCCc2ccccc21` [9cUAB30], the “chemopreventive efficacy of mammary cancers relative to 9cRA” value (mammary cancers) is given as “comparable” and the “toxicity relative to 9cRA” value (mammary cancers) is given as “less toxic”.

In the case of `CC1=C(/C=C/C(C)=C/C=C/C(C)=C\C(=O)O)C(C)(C)CCC1` [(13Z)-RA], the “children in whom excessive myeloproliferation is effectively controlled” value [2] is listed as “up to 50%”.

In the case of `CC1=C(/C=C/C(C)=C/C=C/C(C)=C/C(=O)O)C(C)(C)CCC1` [(all-E)-RA, All-trans-retinoic acid], the complete remission rate [3] is listed as 90%.
